# Patent US20220226258A1, “COMPOSITIONS AND METHODS USING THYMOL AND/OR CARVACROL FOR INDUCTION OF AUTOPHAGY” (SOCIETE DES PRODUITS NESTLE S.A., priority 2019, published 2022)
# Key:
# human Jurkat cells = assay: Autophagic flux (LC3-II, flow cytometry) in Jurkat cells; type: cell-based; conditions: thymol 1.95 to 250 μM, LC3-II median fluorescence intensity, FIG. 1
# Procedure: The human lymphocytic T cell line Jurkat (clone E6.1, ATCC TIB-152) has been used to measure autophagic flux in vitro. Cells were grown in RPMI medium with standard conditions (5% CO2, 37° C.) in a humidified atmosphere. For the experiment, cells were washed, counted and incubated at 1*105/well in duplicate in a 96-flat bottom well plate. Experimental conditions included negative controls (0.5% DMSO), rapamycin treatment as positive control (1 uM) and Earle's Balanced Salt Solution (EBSS) as a starvation medium. Cells received Thymol (in RPMI) at different concentrations ranging from 1.95 μM to 250 μM. In parallel, the same experimental conditions were prepared for the incubation with solution A, from the Flow Cellect Autophagy Kit from Merck, now Guava Autophagy LC3 antibody-based kit. The treatment with compound A blocks the lysosomal degradation of LC3 vesicles and is used to measure autophagic flux. Cells were incubated with thymol at 37° for 1.30 h. Solution A was added for additional 30 minutes. Cells were then transferred in a 96 V bottom plate for the LC3 antibody detection using the Guava Autophagy LC3 antibody-based kit, according the manufacturer's instructions. […] Offline analysis was performed with FCS Express Software and results were expressed as the median fluorescence intensity in the FITC channel (related to the amount of LC3-II present in the cells.)
# zebrafish larvae = assay: Autophagy reporter zebrafish line (LC3-ZsGreen punctae in skeletal muscle); type: in vivo; conditions: 16 hours of treatment, LC3 punctae with and without ammonium chloride, FIG. 2
# Procedure: After 16 hours of treatment larvae were anesthetized with 0.016% tricaine and imaged with ImageXpress confocal system at 20× magnification (Molecular Devices). Z stack images were captured for each larva and maximal projection images were produced. Ammonium chloride was added for additional 4 hours to block lysosomal degradation. Images were acquired again as before. In order to quantify autophagic flux, number of LC3 punctae have been calculated in presence and in absence of ammonium chloride with MetaXpress software (Molecular Devices) and normalized by zebrafish area.
# [1] = test system: liver steatosis in obese mice; assay: Chronic treatment on a model of obesity (high fat diet), liver Oil Red O staining; type: in vivo; conditions: thymol 20 mg/kg/day for 8 weeks, FIG. 4
# Procedure: Mice were fed with high fat diet (Research Diets D12492: 60% fat, 20% protein, 20% carbohydrates) for 8 weeks. Mice were sacrificed by isofluorane inhalation followed by exsanguination. Livers were collected, embedded in OCT and frozen in isopentane. In order to visualize lipid droplets, liver sections of 10 μm were cut and stained by Oil Red O. Lipids size was calculated using imageJ software
smiles,measurement,setting,value
Cc1ccc(C(C)C)c(O)c1 [thymol],concentration from which thymol induced autophagy in a dose dependent manner,human Jurkat cells,≥ 125 µM
same,concentration from which thymol induced autophagy in a dose dependent manner,zebrafish larvae,≥ 50 µM
same,liver steatosis,[1],reduction of liver steatosis
